Data published in US6541491B1, “4-mercaptopyrrolidine derivatives as farnesyl transferase inhibitors” (Zeneca Limited, priority 1995, dated 2003).
pIC50: −log10 of the molar value. Structures can show the parent of a compound that is named as a salt.

What was measured:
[1] = target: T1, Farnesyl protein transferase (FPT) (Homo sapiens, UniProt P49354+P49356); test: Farnesyl protein transferase (FPT) inhibition, tritiated farnesyl pyrophosphate incorporation into ras-CVIM; format: biochemical; conditions: FPT partially purified from human placenta; 300 nM tritiated farnesyl pyrophosphate, 120 nM ras-CVIM, 20 minutes at 37°
T1 construct: partially purified from human placenta by ammonium sulphate fractionation; from tissue; host or cells: human placenta
Description: Biological activity was tested as follows. Farnesyl protein transferase (FPT) was partially purified from human placenta by ammonium sulphate fractionation followed by a single Q-Sepharose® (Pharmacia. Inc) anion exchange chromatography essentially as described by Ray and Lopez-Belmonte (Ray K P and Lopez-Belmonte J (1992) Biochemical Society Transations 20 494-497). The substrate for FPT was Kras (CVIM C-terminal sequence). The cDNA for oncogenic val 12 variant of human c-Ki-ras-24B was obtained from the plasmid pSW11-1(ATCC). This was then subcloned into the polylinker of a suitable expression vector e.g. plC 147. The Kras was obtained after expression in the E. coli strain, BL21. The expression and purification of c-KI-ras-24B and the vall2 variant in E. coli has also been reported by Lowe et al (Lowe P N et al. J. Biol. Chem. (1991) 266 1672-1678).
Incubations with enzyme contained 300 nM tritiated farnesyl pyrophosphate (DuPont/New England Nuclear), 120 nM ras-CVIM, 50 mM Tris HCl pH 8.0. 5 mM MgCl2, 10 μM ZnCl2, 5 mM dithiotheitol and compounds were added at appropriate concentrations in DMSO (3% final concentration in test and vehicle control). […] Precipitated protein was then collected onto glass fibre filter mats (B) using a Tomtec® cell harvester and tritiated label was measured in a Wallac® 1204 Betaplate scintillation counter.

Row | pIC50 [1] | melting point [°C] | Compound
1 | ~6.30 | – | C=CCOC(=O)c1cc(NC(=O)[C@@H]2C[C@H](SC(C)=O)CN2C(=O)OCc2ccc([N+](=O)[O-])cc2)cc(C(=O)N(C)OC)c1 [Example 7, 5 {[(2S,4S),4-acetylsulfanyl-1-(4-nitro-benzyloxycarbonyl)-pyrrolidine-2-carbonyl]-amino}-3(N-methyl-methoxycarbamoyl)-benzoic acid allyl ester]
2 | – | 101 to 105 | O=C(NCc1ccc(Cl)c(Cl)c1)c1ccc(C(=O)NC[C@@H]2C[C@H](S)CN2)nc1 (as salt: salt) [Example 13, 5-[N-(3,4-dichlorobenzyl)carbamoyl]-N-((2S,4S)-4-sulfanylpyrrolidin-2-yl-methyl)pyridine-2-carboxamide]
